Measurements as given in patent US7601716B2, “Pyridopyrazines and derivatives thereof as ALK and c-Met inhibitors” (Cephalon, Inc., priority 2006, dated 2009).
pIC50: −log10 of the molar value. Structures can show the parent of a compound that is named as a salt.

Columns and labels:
[1] = biological target: T1, c-Met (cytoplasmic domain) (Homo sapiens, UniProt P08581); test: c-Met Kinase Assay (ELISA/TRF, PLC-γ substrate); format: biochemical; conditions: 3 μM ATP (Km level); read-out: c-Met Kinase Inhibition (IC50)
T1 construct: Reactions were initiated with 30 ng/mL c-Met (cytoplasmic domain, Invitrogen Corporation #PV3143); purchased Invitrogen Corporation PV3143
Method: Example compounds were tested for their ability to inhibit the kinase activity of baculovirus-expressed ALK using a modification of the ELISA protocol reported for trkA in Angeles, T. S. et al., Anal. Biochem. 1996, 236, 49-55, which is incorporated herein by reference in its entirety. Phosphorylation of the substrate, phospholipase C-gamma (PLC-γ) generated as a fusion protein with glutathione S-transferase (GST) as reported in Rotin, D. et al., EMBO J. 1992, 11, 559-567, which is incorporated herein by reference in its entirety, was detected with a europium-labeled anti-phosphotyrosine antibody and measured by time-resolved fluorescence (TRF). Briefly, each 96-well plate was coated with 100 μL/well of 10 μg/mL substrate (phospholipase C-γ) in Tris-buffered saline (TBS). […] The reaction was initiated by adding enzyme (30 ng/ml ALK) and was allowed to proceed at 37° C. for 15 minutes. Detection of the phosphorylated product was performed by adding 100 μl/well of Eu-N1 labeled PT66 antibody (Perkin Elmer # AD0041). Incubation at 37° C. then proceeded for one (1) hour, followed by addition of 100 μL enhancement solution (Wallac #1244-105). The plate was gently agitated and after thirty minutes, the fluorescence of the resulting solution was measured using the EnVision 2100 (or 2102) multilabel plate reader (Perkin Elmer).
Data analysis was performed using ActivityBase (IDBS, Guilford, UK). IC50 values were calculated by plotting percent inhibition versus log10 of the concentration of compound and fitting to the nonlinear regression sigmoidal dose-response (variable slope) equation in XLFit (IDBS, Guilford, UK).
Reactions were initiated with 30 ng/mL c-Met (cytoplasmic domain, Invitrogen Corporation #PV3143).

[2] = biological target: baculovirus-expressed ALK (Homo sapiens, UniProt Q9UM73); test: ALK Kinase Assay (ELISA/TRF, PLC-γ substrate); format: biochemical; conditions: read-out: ALK Kinase Inhibition (IC50); also: 1 µM ATP (Km level)
Outline: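 An ELISA adapted from a trkA format was used: wells carried GST-fused PLC-γ substrate, and enzyme addition (30 ng/ml ALK) started a 15-minute reaction at 37° C.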

Chain of baculovirus-expressed ALK (Q9UM73 19-1620): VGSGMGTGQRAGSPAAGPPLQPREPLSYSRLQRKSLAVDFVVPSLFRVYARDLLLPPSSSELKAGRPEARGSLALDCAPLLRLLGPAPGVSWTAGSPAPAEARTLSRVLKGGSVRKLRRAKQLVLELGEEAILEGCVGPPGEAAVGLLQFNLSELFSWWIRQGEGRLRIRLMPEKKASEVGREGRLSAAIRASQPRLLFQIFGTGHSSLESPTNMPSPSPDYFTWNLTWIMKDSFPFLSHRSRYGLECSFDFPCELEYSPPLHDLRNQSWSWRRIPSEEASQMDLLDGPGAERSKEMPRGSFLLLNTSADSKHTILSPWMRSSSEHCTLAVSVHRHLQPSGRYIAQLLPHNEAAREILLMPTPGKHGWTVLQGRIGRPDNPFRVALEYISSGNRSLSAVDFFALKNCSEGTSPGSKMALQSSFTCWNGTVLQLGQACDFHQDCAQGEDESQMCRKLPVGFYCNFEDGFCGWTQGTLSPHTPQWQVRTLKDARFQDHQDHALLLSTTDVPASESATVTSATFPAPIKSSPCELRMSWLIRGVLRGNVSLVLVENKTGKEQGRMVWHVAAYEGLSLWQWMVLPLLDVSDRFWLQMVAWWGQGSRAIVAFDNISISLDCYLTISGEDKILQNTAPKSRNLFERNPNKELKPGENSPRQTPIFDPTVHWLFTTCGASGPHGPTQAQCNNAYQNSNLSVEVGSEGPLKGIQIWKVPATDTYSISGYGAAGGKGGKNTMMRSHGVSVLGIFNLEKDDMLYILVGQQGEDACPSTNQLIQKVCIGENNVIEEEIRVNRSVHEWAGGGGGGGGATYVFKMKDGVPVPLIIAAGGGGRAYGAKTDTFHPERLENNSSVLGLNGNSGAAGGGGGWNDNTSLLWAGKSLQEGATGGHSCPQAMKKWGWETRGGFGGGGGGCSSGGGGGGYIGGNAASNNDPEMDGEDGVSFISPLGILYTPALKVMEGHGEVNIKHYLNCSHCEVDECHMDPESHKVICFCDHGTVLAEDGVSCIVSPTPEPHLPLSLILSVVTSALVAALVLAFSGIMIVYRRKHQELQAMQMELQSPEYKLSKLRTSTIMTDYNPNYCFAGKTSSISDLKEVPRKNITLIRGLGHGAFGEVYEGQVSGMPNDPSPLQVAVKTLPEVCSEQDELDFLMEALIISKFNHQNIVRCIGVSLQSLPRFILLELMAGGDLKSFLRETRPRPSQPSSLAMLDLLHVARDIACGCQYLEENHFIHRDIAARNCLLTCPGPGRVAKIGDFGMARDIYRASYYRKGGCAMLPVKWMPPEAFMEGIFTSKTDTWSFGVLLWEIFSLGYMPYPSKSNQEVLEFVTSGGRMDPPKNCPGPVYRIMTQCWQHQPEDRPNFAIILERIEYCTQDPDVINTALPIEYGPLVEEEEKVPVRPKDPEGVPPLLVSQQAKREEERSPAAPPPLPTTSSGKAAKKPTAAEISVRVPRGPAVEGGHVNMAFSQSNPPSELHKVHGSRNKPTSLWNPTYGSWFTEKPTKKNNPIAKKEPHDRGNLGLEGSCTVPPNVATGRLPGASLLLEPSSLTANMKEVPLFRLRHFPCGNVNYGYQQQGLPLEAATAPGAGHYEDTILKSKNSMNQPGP
T1 sequence (P08581 956-1390 limits assumed): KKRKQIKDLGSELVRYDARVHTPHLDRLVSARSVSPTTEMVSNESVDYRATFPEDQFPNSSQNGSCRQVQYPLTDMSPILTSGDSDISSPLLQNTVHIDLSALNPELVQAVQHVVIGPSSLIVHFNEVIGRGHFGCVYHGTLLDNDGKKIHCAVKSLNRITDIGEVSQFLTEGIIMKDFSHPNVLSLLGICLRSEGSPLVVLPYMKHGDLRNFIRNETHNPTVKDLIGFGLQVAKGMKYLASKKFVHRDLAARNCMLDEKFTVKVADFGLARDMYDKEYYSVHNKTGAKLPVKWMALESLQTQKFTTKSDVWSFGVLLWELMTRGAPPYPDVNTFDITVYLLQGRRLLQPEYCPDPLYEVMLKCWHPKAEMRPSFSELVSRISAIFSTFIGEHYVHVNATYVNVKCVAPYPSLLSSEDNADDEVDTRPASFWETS

O=C(c1cnc2c(c1)N(Cc1cc(Cl)ccc1Cl)CCN2)N1CCC(n2c(=O)[nH]c3ccccc32)CC1 [Example 209, 1-{1-[1-(2,5-Dichlorobenzyl)-1,2,3,4-tetrahydropyrido[2,3-b]pyrazine-7-carbonyl]piperidin-4-yl}-1,3-dihydrobenzoimidazol-2-one]
pIC50 [1]: 4.00 to 5.00 | pIC50 [2]: 5.00 to 6.00

O=C(NCCc1ccccc1)c1cnc2c(c1)N(Cc1cc(Cl)ccc1Cl)CCN2 [Example 253, 1-(2,5-Dichlorobenzyl)-1,2,3,4-tetrahydropyrido[2,3-b]pyrazine-7-carboxylic acid phenethyl-amide]
pIC50 [1]: < 4.00 | pIC50 [2]: 6.00 to 7.00

CN1CCN(c2ccc(-c3cnc4c(c3)C(Cc3cc(F)ccc3F)CCN4)cn2)CC1 (stereo not drawn) [Example 286, 4-(2,5-Difluorobenzyl)-6-[6-(4-methylpiperazin-1-yl)pyridin-3-yl]-1,2,3,4-tetrahydro-[1,8]naphthyridine]
pIC50 [1]: < 4.00 | pIC50 [2]: 5.00 to 6.00

O=C(NCc1ccccc1Cl)c1cnc2c(c1)N(Cc1cc(Cl)ccc1Cl)CCN2 [Example 256, 1-(2,5-Dichlorobenzyl)-1,2,3,4-tetrahydropyrido[2,3-b]pyrazine-7-carboxylic acid 2-chloro-benzylamide]
pIC50 [1]: < 4.00 | pIC50 [2]: 5.00 to 6.00

O=C(NC1CCCCC1)c1cnc2c(c1)N(Cc1cc(Cl)ccc1Cl)CCN2 [Example 248, 1-(2,5-Dichlorobenzyl)-1,2,3,4-tetrahydropyrido[2,3-b]pyrazine-7-carboxylic acid cyclohexylamide]
pIC50 [1]: < 4.00 | pIC50 [2]: 5.00 to 6.00

O=C(c1cnc2c(c1)N(Cc1cc(Cl)ccc1Cl)CCN2)N1CCN(c2ccc(Cl)c(Cl)c2)CC1 [Example 213, [1-(2,5-Dichlorobenzyl)-1,2,3,4-tetrahydropyrido[2,3-b]pyrazin-7-yl]-[4-(3,4-dichlorophenyl)-piperazin-1-yl]methanone]
pIC50 [1]: 4.00 to 5.00 | pIC50 [2]: 5.00 to 6.00

O=C(NCCOc1ccccc1)c1cnc2c(c1)N(Cc1cc(Cl)ccc1Cl)CCN2 [Example 251, 1-(2,5-Dichlorobenzyl)-1,2,3,4-tetrahydropyrido[2,3-b]pyrazine-7-carboxylic acid (2-phenoxyethyl)amide]
pIC50 [1]: 4.00 to 5.00 | pIC50 [2]: 4.00 to 5.00

CN1CCN(C(=O)c2cnc3c(c2)N(Cc2cc(F)ccc2F)CCN3)CC1 [Example 79, [1-(2,5-Difluorobenzyl)-1,2,3,4-tetrahydropyrido[2,3-b]pyrazin-7-yl]-(4-methylpiperazin-1-yl)methanone]
pIC50 [1]: < 4.00 | pIC50 [2]: 4.00 to 5.00

O=C(c1cccc(-c2cnc3c(c2)N(Cc2ccccc2)C(=O)CN3)c1)N1CCCC1 [Example 20, 1-Benzyl-7-[3-(pyrrolidine-1-carbonyl)phenyl]-3,4-dihydro-1H-pyrido[2,3-b]pyrazin-2-one]
pIC50 [1]: 4.00 to 5.00 | pIC50 [2]: 5.00 to 6.00

COc1ccccc1N1CCN(C(=O)c2cnc3c(c2)N(Cc2cc(Cl)ccc2Cl)CCN3)CC1 [Example 210, [1-(2,5-Dichlorobenzyl)-1,2,3,4-tetrahydropyrido[2,3-b]pyrazin-7-yl]-[4-(2-methoxyphenyl)piperazin-1-yl]methanone]
pIC50 [1]: 4.00 to 5.00 | pIC50 [2]: 5.00 to 6.00

CN1CCN(c2ccc(-c3cnc4c(c3)N(Cc3cccc(F)c3C(F)(F)F)CCN4)cn2)CC1 [Example 181, 1-[3-Fluoro-2-(trifluoromethyl)benzyl]-7-[6-(4-methylpiperazin-1-yl)pyridin-3-yl]-1,2,3,4-tetrahydropyrido[2,3-b]pyrazine]
pIC50 [1]: 5.00 to 6.00 | pIC50 [2]: 6.00 to 7.00

O=C(c1cnc2c(c1)N(Cc1cc(Cl)ccc1Cl)CCN2)N1CCC(c2ccccc2)CC1 [Example 212, [1-(2,5-Dichlorobenzyl)-1,2,3,4-tetrahydropyrido[2,3-b]pyrazin-7-yl]-(4-phenylpiperidin-1-yl)methanone]
pIC50 [1]: 5.00 to 6.00 | pIC50 [2]: 5.00 to 6.00

O=C(c1cnc2c(c1)N(Cc1cc(Cl)ccc1Cl)CCN2)N1CCN(c2cnccn2)CC1 [Example 241, [1-(2,5-Dichlorobenzyl)-1,2,3,4-tetrahydropyrido[2,3-b]pyrazin-7-yl]-(2,3,5,6-tetrahydro-[1,2′]bipyrazinyl-4-yl)methanone]
pIC50 [1]: < 4.00 | pIC50 [2]: 6.00 to 7.00

O=C(NCc1csc(-c2ccccc2)n1)c1cnc2c(c1)N(Cc1cc(Cl)ccc1Cl)CCN2 [Example 242, 1-(2,5-Dichlorobenzyl)-1,2,3,4-tetrahydropyrido[2,3-b]pyrazine-7-carboxylic acid (2-phenylthiazol-4-yl-methyl)amide]
pIC50 [1]: < 4.00 | pIC50 [2]: 5.00 to 6.00

NS(=O)(=O)c1ccc(CCNC(=O)c2cnc3c(c2)N(Cc2cc(Cl)ccc2Cl)CCN3)cc1 [Example 240, 1-(2,5-Dichlorobenzyl)-1,2,3,4-tetrahydropyrido[2,3-b]pyrazine-7-carboxylic acid [2-(4-sulfamoylphenyl)ethyl]amide]
pIC50 [1]: < 4.00 | pIC50 [2]: 6.00 to 7.00

CC(c1cc(F)ccc1F)N1C(=O)CNc2ncc(-c3ccc(C(=O)N4CCN(C)CC4)cc3)cc21 (stereo not drawn) [Example 152, 1-[1-(2,5-Difluorophenyl)ethyl]-7-[4-(4-methylpiperazine-1-carbonyl)phenyl]-3,4-dihydro-1H-pyrido[2,3-b]pyrazin-2-one, trifluoroacetic acid salt]
pIC50 [1]: 4.00 to 5.00 | pIC50 [2]: 5.00 to 6.00

O=C(NC(c1ccccc1)c1ccccc1)c1cnc2c(c1)N(Cc1cc(Cl)ccc1Cl)CCN2 [Example 233, 1-(2,5-Dichlorobenzyl)-1,2,3,4-tetrahydropyrido[2,3-b]pyrazine-7-carboxylic acid benzhydrylamide]
pIC50 [1]: 4.00 to 5.00 | pIC50 [2]: 5.00 to 6.00

COc1ncc(-c2cnc3c(c2)N(Cc2cc(Cl)ccc2Cl)CCN3)cn1 [Example 129, 1-(2,5-Dichlorobenzyl)-7-(2-methoxypyrimidin-5-yl)-1,2,3,4-tetrahydropyrido[2,3-b]pyrazine]
pIC50 [1]: 4.00 to 5.00 | pIC50 [2]: 6.00 to 7.00

COc1ccc(CNC(=O)c2cnc3c(c2)N(Cc2cc(Cl)ccc2Cl)CCN3)cc1 [Example 258, 1-(2,5-Dichlorobenzyl)-1,2,3,4-tetrahydropyrido[2,3-b]pyrazine-7-carboxylic acid 4-methoxybenzylamide]
pIC50 [1]: < 4.00 | pIC50 [2]: 5.00 to 6.00

CN1CCN(C(=O)c2ccc(-c3cnc4c(c3)N(Cc3cc(F)c(F)cc3F)CCN4)cc2)CC1 [Example 86, (4-Methylpiperazin-1-yl)-{4-[1-(2,4,5-trifluorobenzyl)-1,2,3,4-tetrahydropyrido[2,3-b]pyrazin-7-yl]phenyl}-methanone]
pIC50 [1]: 5.00 to 6.00 | pIC50 [2]: 5.00 to 6.00

O=C(c1cnc2c(c1)N(Cc1cc(Cl)ccc1Cl)CCN2)N1CCCC1c1cccnc1 (stereo not drawn) [Example 264, [1-(2,5-Dichlorobenzyl)-1,2,3,4-tetrahydropyrido[2,3-b]pyrazin-7-yl]-(2-pyridin-3-yl-pyrrolidin-1-yl)methanone]
pIC50 [1]: < 4.00 | pIC50 [2]: 5.00 to 6.00

CC(C)NC(=O)CN1CCN(C(=O)c2cnc3c(c2)N(Cc2cc(Cl)ccc2Cl)CCN3)CC1 [Example 236, 2-{4-[1-(2,5-Dichlorobenzyl)-1,2,3,4-tetrahydropyrido[2,3-b]pyrazine-7-carbonyl]piperazin-1-yl}-N-isopropylacetamide]
pIC50 [1]: 4.00 to 5.00 | pIC50 [2]: 5.00 to 6.00

CCOC(=O)c1ccc(-c2cnc3c(c2)N(Cc2ccccc2)C(=O)CN3)cn1 [Example 29, 5-(1-Benzyl-2-oxo-1,2,3,4-tetrahydropyrido[2,3-b]pyrazin-7-yl)pyridine-2-carboxylic acid ethyl ester]
pIC50 [1]: 4.00 to 5.00 | pIC50 [2]: 6.00 to 7.00

CN1CCN(c2ccc(-c3cnc4c(c3)C(Oc3cccc(Cl)c3)CCN4)cn2)CC1 (stereo not drawn) [Example 281, 4-(3-Chlorophenoxy)-6-[6-(4-methylpiperazin-1-yl)pyridin-3-yl]-1,2,3,4-tetrahydro-[1,8]naphthyridine]
pIC50 [1]: 5.00 to 6.00 | pIC50 [2]: 6.00 to 7.00

Fc1cccc(CN2CCNc3ncc(I)cc32)c1C(F)(F)F [Example 179, 1-[3-Fluoro-2-(trifluoromethyl)benzyl]-7-iodo-1,2,3,4-tetrahydropyrido[2,3-b]pyrazine]
pIC50 [1]: < 4.00 | pIC50 [2]: < 4.00

O=S(=O)(c1ccccc1)N1CCNc2ncc(I)cc21 [Example 123, 1-Benzenesulfonyl-7-iodo-1,2,3,4-tetrahydropyrido[2,3-b]pyrazine]
pIC50 [1]: 4.00 to 5.00 | pIC50 [2]: 4.00 to 5.00

CN1CCN(CCS(=O)(=O)Nc2ccc(-c3cnc4c(c3)N(C(=O)c3ccccc3)CCN4)cc2)CC1 [Example 47, 2-(4-Methylpiperazin-1-yl)-ethanesulfonic acid[4-(1-benzoyl-1,2,3,4-tetrahydropyrido[2,3-b]pyrazin-7-yl)phenyl]amide]
pIC50 [1]: 4.00 to 5.00 | pIC50 [2]: 4.00 to 5.00
